Source: the supplement of paper PMC8671470
Counter-ions that a name gives are not always drawn.

What was measured:
Test in all cases: cell viability (% survival relative to DMSO control); higher = less cytotoxic
Settings in all cases: 72 h
Mono-Mac-6 = system: Mono-Mac-6
Description: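 8x8 drug-combination matrices (0–5000 nM; rosiglitazone and lestaurtinib 0–1000 nM) were run in Mono-Mac-6 cells for 72 h with CellTiter-Glo read-out. Survival is normalised to DMSO and 10 µM bortezomib and clipped at 100%.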

BV-173 = system: BV-173
Description: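 8x8 drug-combination matrices (0–5000 nM; rosiglitazone and lestaurtinib 0–1000 nM) were run in BV-173 cells for 72 h with CellTiter-Glo read-out. Survival is normalised to DMSO and 10 µM bortezomib and clipped at 100%.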

MV4-11 = system: MV4-11
Description: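 8x8 drug-combination matrices (0–5000 nM; rosiglitazone and lestaurtinib 0–1000 nM) were run in MV4-11 cells for 72 h with CellTiter-Glo read-out. Survival is normalised to DMSO and 10 µM bortezomib and clipped at 100%.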

CN(CCOc1ccc(Cc2sc(O)nc2O)cc1)c1ccccn1 [Rosiglitazone] + CC(C)(Cc1ccccc1)NCC(O)c1ccc(O)c(NS(C)(=O)=O)c1 [Zinterol hydrochloride]
cell viability [%]
Settings	drug1 concentration 1 nM	drug1 concentration 5 nM	drug1 concentration 10 nM	drug1 concentration 50 nM	drug1 concentration 100 nM	drug1 concentration 500 nM	drug1 concentration 1000 nM
BV-173, drug2 concentration 5 nM	> 100	> 100	> 100	> 100	> 100	> 100	> 100
BV-173, drug2 concentration 10 nM	> 100	86.8	> 100	> 100	> 100	> 100	> 100
BV-173, drug2 concentration 50 nM	98.6	> 100	88.7	> 100	91.5	> 100	> 100
BV-173, drug2 concentration 100 nM	> 100	> 100	> 100	> 100	> 100	97.1	> 100
BV-173, drug2 concentration 500 nM	> 100	> 100	> 100	> 100	> 100	> 100	> 100
BV-173, drug2 concentration 1000 nM	> 100	89.5	> 100	94.1	> 100	> 100	> 100
BV-173, drug2 concentration 5000 nM	94.8	> 100	90.4	> 100	> 100	97.6	> 100
MV4-11, drug2 concentration 5 nM	> 100	97.6	93.9	77.8	> 100	> 100	> 100
MV4-11, drug2 concentration 10 nM	> 100	> 100	> 100	> 100	> 100	89.1	> 100
MV4-11, drug2 concentration 50 nM	97	96.9	91.9	> 100	> 100	94	> 100
MV4-11, drug2 concentration 100 nM	> 100	> 100	> 100	> 100	93	96.1	> 100
MV4-11, drug2 concentration 500 nM	99.9	> 100	98.7	> 100	> 100	87.2	98.8
MV4-11, drug2 concentration 1000 nM	> 100	70.6	96.2	> 100	91.6	95.1	> 100
MV4-11, drug2 concentration 5000 nM	95	> 100	98.5	> 100	> 100	> 100	> 100
Mono-Mac-6, drug2 concentration 5 nM	83	77.8	> 100	79.7	78.7	27.6	21.7
Mono-Mac-6, drug2 concentration 10 nM	66.3	76	74.4	89.6	60.8	20.5	24.5
Mono-Mac-6, drug2 concentration 50 nM	86.8	79.1	74.5	76.7	45.8	29.2	28.8
Mono-Mac-6, drug2 concentration 100 nM	70.8	77.4	78.3	62.9	49.7	28	18.9
Mono-Mac-6, drug2 concentration 500 nM	74.7	67.8	67.6	66.1	47.9	28.4	27.1
Mono-Mac-6, drug2 concentration 1000 nM	76.3	86.7	74.7	66.2	45.4	20.5	32.7
Mono-Mac-6, drug2 concentration 5000 nM	55.9	64.8	51.4	46.9	49.4	22	0
